The source made the active and inactive calls. The rule behind the calls is not given here.

Broadly, the Inhibition is the change of the read-out against control, counted positive when it falls. Read a high Inhibition as a strong effect.

For one series, the species on record is Rattus norvegicus. Kind of series: Inhibition of testoterone-induced prostate weight in castrated immature Sprague-Dawley rat at 2 mg/day relative to control.
Conditions: not given
Type of series: functional, Prostate gland.
Compound `O=C(Cn1c(CC(F)(F)F)nc2cc(Cl)c(Cl)cc21)c1ccccn1` gave an Inhibition of 76%.

In turn, `FC(F)(F)Cc1nc2cc(Cl)c(Cl)cc2n1Cc1ccccc1Cl` showed an Inhibition of 90%. Same read-out and setting: next, `O=C(Cn1c(CC(F)(F)F)nc2cc(Cl)c(Cl)cc21)c1ccc([N+](=O)[O-])cc1`: 71%; `O=S(=O)(Cc1ccccc1Cn1c(CC(F)(F)F)nc2cc(Cl)c(Cl)cc21)c1ccccc1`: 74%. Still for that read-out and setting: next, `FC(F)(F)Cc1nc2cc(Cl)c(Cl)cc2n1CCOc1ccc(Cl)cc1`: 48%; `N#Cc1ccc(OCCn2c(CC(F)(F)F)nc3cc(Cl)c(Cl)cc32)cc1`: 86%; `O=C(Cn1c(CC(F)(F)F)nc2cc(Cl)c(Cl)cc21)c1ccc(F)cc1`: 67%.

With `Fc1c(F)c(F)c(Cn2c(CC(F)(F)F)nc3cc(Cl)c(Cl)cc32)c(F)c1F`, the Inhibition is on record as 19%. The compound `CCOC(=O)c1ccc(Cn2c(CC(F)(F)F)nc3cc(Cl)c(Cl)cc32)cc1` displayed an Inhibition of 56%. The same measure, in the same setting: next, `O=C(Cn1c(CC(F)(F)F)nc2cc(Cl)c(Cl)cc21)c1cccs1`: 43%; `Oc1ccc(Cn2c(CC(F)(F)F)nc3cc(Cl)c(Cl)cc32)cc1`: 28%; `Fc1cccc(Cn2c(CC(F)(F)F)nc3cc(Cl)c(Cl)cc32)c1`: 55%. The same measure, in the same setting: in the case of `O=[N+]([O-])c1ccccc1Cn1c(CC(F)(F)F)nc2cc(Cl)c(Cl)cc21` it was 81%; in that of `Cc1ccccc1Cn1c(CC(F)(F)F)nc2cc(Cl)c(Cl)cc21`, 73%; in that of `COc1ccccc1Cn1c(CC(F)(F)F)nc2cc(Cl)c(Cl)cc21`, 51%. Same read-out and setting: next, `Fc1ccccc1Cn1c(CC(F)(F)F)nc2cc(Cl)c(Cl)cc21`: 77%; `COc1ccc(Cn2c(CC(F)(F)F)nc3cc(Cl)c(Cl)cc32)cc1`: 51%. For the compound `O=C(O)c1ccc(Cn2c(CC(F)(F)F)nc3cc(Cl)c(Cl)cc32)cc1`, the Inhibition amounted to 38%. On the same count and under the same terms, in the case of `FC(F)(F)Cc1nc2cc(Cl)c(Cl)cc2n1Cc1ccc(OCc2ccccc2)cc1` it was 46%; in that of `N#Cc1ccc(Cn2c(CC(F)(F)F)nc3cc(Cl)c(Cl)cc32)cc1`, 68%; in that of `FC(F)(F)Cc1nc2cc(Cl)c(Cl)cc2n1Cc1cccc(OC(F)(F)F)c1`, 26%. With `CC(O)(c1nc2cc(Cl)c(Cl)cc2n1CC#N)C(F)(F)F` (centres undefined), the Inhibition is 54%.

Turning to `Fc1ccc(Cn2c(CC(F)(F)F)nc3cc(Cl)c(Cl)cc32)cc1`, the Inhibition is 80%. On the same count and under the same terms, in the case of `O=C(Cn1c(CC(F)(F)F)nc2cc(Cl)c(Cl)cc21)c1ccccc1` it was 38%. Still for that read-out and setting: next, `COCn1c(C(C)(O)C(F)(F)F)nc2cc(Cl)c(Cl)cc21` (centres undefined): 88%.

`FC(F)(F)Cc1nc2cc(Cl)c(Cl)cc2[nH]1`: the Inhibition amounted to 90%. On the same count and under the same terms, in the case of `CCC(=O)Cn1c(CC(F)(F)F)nc2cc(Cl)c(Cl)cc21` it was 64%; in that of `FC(F)(F)Cc1nc2cc(Cl)c(Cl)cc2n1Cc1ccc(Cl)cc1`, 77%; in that of `O=[N+]([O-])c1cccc(Cn2c(CC(F)(F)F)nc3cc(Cl)c(Cl)cc32)c1`, 49%. Regarding `O=C(Cn1c(CC(F)(F)F)nc2cc(Cl)c(Cl)cc21)c1cccc([N+](=O)[O-])c1`, the Inhibition was 14%. As for `OC(c1nc2cc(Cl)c(Cl)cc2n1Cc1ccccn1)C(F)(F)F` (centres undefined), the Inhibition turned out to be 84%.

For `O=C(Cn1c(CC(F)(F)F)nc2cc(Cl)c(Cl)cc21)c1ccc(Cl)cc1`, the Inhibition is given as 33%. Same read-out and setting: in the case of `Fc1cccc(OCCn2c(CC(F)(F)F)nc3cc(Cl)c(Cl)cc32)c1` it was 22%; in that of `FC(F)(F)Cc1nc2cc(Cl)c(Cl)cc2n1Cc1ccccc1`, 79%. `FC(F)(F)Cc1nc2cc(Cl)c(Cl)cc2n1Cc1ccccn1`: the Inhibition is reported as 89%. For `FC(F)(F)Cc1nc2cc(Cl)c(Cl)cc2n1Cc1ccc(OC(F)(F)F)cc1`, the Inhibition was determined as 35%. On the same count and under the same terms, in the case of `N#Cc1ccccc1Cn1c(CC(F)(F)F)nc2cc(Cl)c(Cl)cc21` it was 74%; in that of `FC(F)(F)Cc1nc2cc(Cl)c(Cl)cc2n1Cc1ccccc1C(F)(F)F`, 86%. Same read-out and setting: next, `OC(O)(c1nc2cc(Cl)c(Cl)cc2n1Cc1ccccc1)C(F)(F)F`: 85%; `CC(O)(c1nc2cc(Cl)c(Cl)cc2[nH]1)C(F)(F)F` (centres undefined): 74%; `FC(F)(F)Cc1nc2cc(Cl)c(Cl)cc2n1Cc1ccccc1Br`: 84%. On the same count and under the same terms, in the case of `OC(c1nc2cc(Cl)c(Cl)cc2[nH]1)C(F)(F)F` (centres undefined) it was 96%. Compound `FC(F)(F)Cc1nc2cc(Cl)c(Cl)cc2n1Cc1ccc(C(F)(F)F)cc1` showed an Inhibition of 75%. Same read-out and setting: next, `O=C(Cn1c(CC(F)(F)F)nc2cc(Cl)c(Cl)cc21)c1ccc(Br)cc1`: 27%. Still for that read-out and setting: next, `CS(=O)(=O)c1ccc(Cn2c(CC(F)(F)F)nc3cc(Cl)c(Cl)cc32)cc1`: 32%; `OCCn1c(CC(F)(F)F)nc2cc(Cl)c(Cl)cc21`: 54%. The compound `Cc1cccc(Cn2c(CC(F)(F)F)nc3cc(Cl)c(Cl)cc32)c1` had an Inhibition of 31%.

`OC(c1nc2cc(Cl)c(Cl)cc2n1Cc1ccccc1)C(F)(F)F` (centres undefined): the Inhibition was determined as 49%. Still for that read-out and setting: next, `COc1ccccc1C(=O)Cn1c(CC(F)(F)F)nc2cc(Cl)c(Cl)cc21`: 10%; `Fc1ccc(OCCn2c(CC(F)(F)F)nc3cc(Cl)c(Cl)cc32)cc1`: 40%. Turning to `FC(F)(F)Cc1nc2cc(Cl)c(Cl)cc2n1Cc1ccc(C(F)(F)F)cc1C(F)(F)F`, the Inhibition was 13%. Same read-out and setting: in the case of `OC(O)(c1nc2cc(Cl)c(Cl)cc2[nH]1)C(F)(F)F` it was 94%; in that of `FC(F)(F)Cc1nc2cc(Cl)c(Cl)cc2n1Cc1ccccc1-c1ccccn1`, 89%. Still for that read-out and setting: in the case of `FC(F)(F)Cc1nc2cc(Cl)c(Cl)cc2n1Cc1ccccc1-c1cccnc1` it was 80%; in that of `O=[N+]([O-])c1ccc(Cn2c(CC(F)(F)F)nc3cc(Cl)c(Cl)cc32)cc1`, 61%. The same measure, in the same setting: in the case of `FC(F)(F)Cc1nc2cc(Cl)c(Cl)cc2n1Cc1ccc(SC(F)(F)F)cc1` it was 13%; in that of `CC(O)(CS(=O)(=O)c1ccc(F)cc1)C(=O)Nc1ccc(C#N)c(C(F)(F)F)c1` (centres undefined) [BICALUTAMIDE], 70%; in that of `FC(F)(F)Cc1nc2cc(Cl)c(Cl)cc2n1Cc1cccc(Cl)c1`, 35%. For the compound `N#Cc1cccc(Cn2c(CC(F)(F)F)nc3cc(Cl)c(Cl)cc32)c1`, the Inhibition came out at 70%. Same read-out and setting: next, `FC(F)(F)Cc1nc2cc(Cl)c(Cl)cc2n1Cc1ccccc1-c1ccccc1`: 79%; `FC(F)(F)Cc1nc2cc(Cl)c(Cl)cc2n1Cc1ccccc1-c1ccncc1`: 42%; `FC(F)(F)Cc1nc2cc(Cl)c(Cl)cc2n1Cc1ccc(Br)cc1`: 75%. Still for that read-out and setting: in the case of `FC(F)(F)Cc1nc2cc(Cl)c(Cl)cc2n1Cc1cccc(C(F)(F)F)c1` it was 74%.

Still in this series, the particulars now being: Prostate gland.
`COc1cccc(Cn2c(CC(F)(F)F)nc3cc(Cl)c(Cl)cc32)c1`: the outcome was inactive. Still for that read-out and setting: in the case of `Cn1c(C(C)(O)C(F)(F)F)nc2cc(Cl)c(Cl)cc21` (centres undefined) it was “inactive”. As to `COc1ccc(C(=O)Cn2c(CC(F)(F)F)nc3cc(Cl)c(Cl)cc32)c(OC)c1`, the result was inactive. On the same count and under the same terms, next, `O=C(Cn1c(CC(F)(F)F)nc2cc(Cl)c(Cl)cc21)c1cccnc1`: “inactive”. The same measure, in the same setting: in the case of `COc1cccc(C(=O)Cn2c(CC(F)(F)F)nc3cc(Cl)c(Cl)cc32)c1` it was “inactive”; in that of `CCn1c(C(C)(O)C(F)(F)F)nc2cc(Cl)c(Cl)cc21` (centres undefined), “inactive”.

The species entered for the next series is Rattus norvegicus. In words: Inhibition of testoterone-induced prostate weight in castrated immature Sprague-Dawley rat at 1 mg/day relative to control. It counts as functional, Prostate gland.
Conditions: not given
Compound `FC(c1nc2cc(Cl)c(Cl)cc2[nH]1)C(F)(F)F` (centres undefined) came in with an Inhibition of 81%.

For a further series, the species on record is Rattus norvegicus. Kind of series: Inhibition of testoterone-induced prostate weight in castrated immature Sprague-Dawley rat. It counts as functional, Prostate gland.
Conditions: not given
Regarding `O=C(Cn1c(CC(F)(F)F)nc2cc(Cl)c(Cl)cc21)c1ccccn1`, the ID50 is listed as 0.47 mg/day. Compound `FC(F)(F)Cc1nc2cc(Cl)c(Cl)cc2n1Cc1ccccc1Cl` yielded an ID50 of 0.26 mg/day. The same measure, in the same setting: next, `O=[N+]([O-])c1ccccc1Cn1c(CC(F)(F)F)nc2cc(Cl)c(Cl)cc21`: 0.95 mg/day; `Fc1ccccc1Cn1c(CC(F)(F)F)nc2cc(Cl)c(Cl)cc21`: 0.82 mg/day; `Fc1ccc(Cn2c(CC(F)(F)F)nc3cc(Cl)c(Cl)cc32)cc1`: 0.19 mg/day.

For `FC(F)(F)Cc1nc2cc(Cl)c(Cl)cc2n1Cc1ccc(Cl)cc1`, the ID50 was determined as 0.28 mg/day. On the same count and under the same terms, next, `FC(F)(F)Cc1nc2cc(Cl)c(Cl)cc2n1Cc1ccccc1`: 0.37 mg/day; `FC(F)(F)Cc1nc2cc(Cl)c(Cl)cc2n1Cc1ccccc1Br`: 0.38 mg/day.

`FC(F)(F)Cc1nc2cc(Cl)c(Cl)cc2n1Cc1ccccc1-c1ccccn1` had an ID50 of 0.4 mg/day. The same measure, in the same setting: next, `CC(O)(CS(=O)(=O)c1ccc(F)cc1)C(=O)Nc1ccc(C#N)c(C(F)(F)F)c1` (centres undefined) [BICALUTAMIDE]: 0.23 mg/day.

The compound `FC(F)(F)Cc1nc2cc(Cl)c(Cl)cc2n1Cc1ccccc1-c1ccccc1` returned an ID50 of 0.55 mg/day. The same measure, in the same setting: in the case of `FC(F)(F)Cc1nc2cc(Cl)c(Cl)cc2n1Cc1ccc(Br)cc1` it was 0.13 mg/day. Still for that read-out and setting: in the case of `FC(F)(F)Cc1nc2cc(Cl)c(Cl)cc2n1Cc1cccc(C(F)(F)F)c1` it was 0.4 mg/day.

The species named for another series is Rattus norvegicus. In words: Toxicity in castrated immature Sprague-Dawley rat at 2 mg/day. Conditions: in vivo.
As for `FC(F)(F)C(F)(F)c1nc2cc(Cl)c(Cl)cc2[nH]1`, the Activity result is “Toxic”.

The record behind these values is ChEMBL document CHEMBL1146317, “2-(2,2,2-Trifluoroethyl)-5,6-dichlorobenzimidazole derivatives as potent androgen receptor antagonists” (Bioorg Med Chem Lett, 2007).
